Data on 13 molecules can be found in US20250136722A1, “CYTOTOXICITY TARGETING CHIMERAS” (GLAXOSMITHKLINE INTELLECTUAL PROPERTY DEVELOPMENT LIMITED, priority 2021, published 2025).

Assay [1] deals with T1, CHOK1 cells engineered to overexpress human CCR2 (Homo sapiens, UniProt P41597).
T1 construct: expressed in transfected cells; host or cells: CHOK1 cells
Description: Antibody dependent cellular cytotoxicity (ADCC) reporter assay (Example 199). Type of assay: cell-based. To be noted: with anti-cotinine antibody SEQ ID NO: 11/12; CHOK1-human CCR2 target cells, Jurkat FcγRIIIa NFAT-luciferase reporter cells; 12-18 hours; read-out: ADCC Reporter Assay pEC50 (converted). An outline of the steps: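 CHOK1-hCCR2 target cells are co-incubated for 12–18 h with Jurkat FcγRIIIa/NFAT-luciferase reporter cells, ARM compound (1 pM–10 μM) and anti-cotinine antibody with a DE-mutant human IgG1 Fc (0.01–200 μg/mL). Luminescence is expressed as signal:background against no-compound wells; EC50 comes from nonlinear fit and is reported as pEC50, averaged across runs.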

The target in assay [2] is Anti-cotinine antibody (SEQ ID NO: 11 / SEQ ID NO: 12, rabbit variable region with human IgG1 Fc domain). The assay can be described thus: Binding of anti-cotinine antibody to ARM compounds by SPR, Biacore T200, 37° C. (Example 202). To be noted: pH 7.4, rabbit variable region/human IgG1 Fc antibody captured on protein A. The protocol: Anti-cotinine antibodies having a heavy chain sequence of SEQ ID NO: 11 and a light chain sequence of SEQ ID NO: 12 (rabbit variable region with human IgG1 Fc domain containing a DE mutation (S239D/1332E)) were captured on one or more flow cells of a protein A sensor chip (Cytiva) using a Biacore T200 while reserving flow cell 1 as a reference. Following capture, a 3000 second wait step was included to reduce drift during compound analysis. ARM compounds of Formula (I) were then injected at 100 μL/min with 200 and 2000 second association and dissociation times. The entire experiment was run at 37° C. with running buffer containing 10 mM HEPES pH 7.4, 150 mM NaCl, 0.005% P20 and 1% DMSO. ARM compounds of Formula (I) were titrated with a top concentration of 200 nM using a 3-fold 5-point dilution series and a corresponding 5-injection buffer cycle was run for blank subtraction. Data were double referenced by subtracting the response of the reference flow cell from that of the antibody-containing flow cell and subsequently subtracting the referenced blank sensorgrams. Following compound analysis, the surface was regenerated using a 30 second injection of pH 1.5 glycine at a flow rate of 30 μL/min after which antibody was re-captured. The experiment was run using Biacore T200 control software and evaluated using Biacore T200 Evaluation software. Curves were fit with a 1:1 kinetic binding model to obtain kon(1/Ms), koff(1/s), Kd (M) determined as koff/kon, and residence time determined as 1/koff. (s).
Anti-cotinine antibody was tested for binding to ARMs compounds of Formula (I) of the invention in the above assay in or more experimental runs and the results are shown in Table 5 below. Affinity is reported as a pKd value. The pKd value is the negative log of the Kd value, wherein the Kd value is the dissociation constant measured in molar (M) as noted above. For compounds tested in more than one experimental run, the pKd value is reported as an average.

For assay [3], the target named is human alpha1 nicotinic acetylcholine (nACh) receptor (Homo sapiens, UniProt P02708+Q07001). Description: Nicotinic acetylcholine receptor antagonism assay, IONFlux automated patch clamp (Example 203). The conditions noted are these: for Emax at 100 µM: maximum percentage antagonism at maximum concentration tested 100 μM; for Emax at 100 µM / Emax at 10 µM: read-out: Maximum Response (%); for IC50: nAChR antagonism, ACh stimulated, patch clamp; for Emax at 10 µM: maximum percentage antagonism at maximum concentration tested 10 μM. The class given is cell-based. The protocol: Cells expressing human alpha1 nicotinic acetylcholine (nACh) receptor (nAChR) were washed and dissociated using Trypsin containing buffer. Cells were then washed and seeded at a density of 3-5 million cells/mL and allowed to grow for 3 days. Then, 60-80 μL of cells were added to plates and incubated with dose response of an ARM compound of Formula (I) with a top concentration of either 10 μM or 100 μM. The receptor was then stimulated via addition of acetylcholine (ACh) and activation of the receptor was monitored via the IONFlux automated patch clamp system. IonFlux Data Analyzer software was utilized to perform leak subtraction and measure (min) peak current amplitude.
human alpha1 nicotinic acetylcholine (nACh) receptor, sequence (P02708 21-457): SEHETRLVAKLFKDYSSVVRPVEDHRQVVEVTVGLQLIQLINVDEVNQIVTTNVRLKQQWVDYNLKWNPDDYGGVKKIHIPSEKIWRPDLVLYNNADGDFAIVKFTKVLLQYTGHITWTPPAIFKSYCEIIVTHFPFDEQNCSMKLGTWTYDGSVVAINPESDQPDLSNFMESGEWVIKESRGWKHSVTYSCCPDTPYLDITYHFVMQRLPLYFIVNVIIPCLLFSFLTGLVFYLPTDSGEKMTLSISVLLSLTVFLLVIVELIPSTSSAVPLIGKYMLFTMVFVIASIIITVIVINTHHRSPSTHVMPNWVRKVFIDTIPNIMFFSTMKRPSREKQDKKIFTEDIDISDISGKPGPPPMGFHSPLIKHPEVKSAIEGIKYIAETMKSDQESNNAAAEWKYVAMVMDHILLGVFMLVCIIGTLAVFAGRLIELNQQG
human alpha1 nicotinic acetylcholine (nACh) receptor, sequence (P11230 24-501 partner): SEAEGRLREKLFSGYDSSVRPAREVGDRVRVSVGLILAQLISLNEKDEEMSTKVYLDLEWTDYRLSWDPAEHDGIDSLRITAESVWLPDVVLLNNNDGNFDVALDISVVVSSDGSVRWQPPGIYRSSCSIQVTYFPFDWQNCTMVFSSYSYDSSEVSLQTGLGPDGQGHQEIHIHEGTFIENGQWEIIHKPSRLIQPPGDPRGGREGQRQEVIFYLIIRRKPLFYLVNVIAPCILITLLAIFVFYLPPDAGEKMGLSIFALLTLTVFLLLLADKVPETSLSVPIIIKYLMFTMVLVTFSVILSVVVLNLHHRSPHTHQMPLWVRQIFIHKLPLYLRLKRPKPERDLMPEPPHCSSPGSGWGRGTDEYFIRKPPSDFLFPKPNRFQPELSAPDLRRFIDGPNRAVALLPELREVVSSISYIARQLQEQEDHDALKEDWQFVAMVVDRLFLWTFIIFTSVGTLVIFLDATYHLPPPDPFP
human alpha1 nicotinic acetylcholine (nACh) receptor, sequence (Q07001 22-517): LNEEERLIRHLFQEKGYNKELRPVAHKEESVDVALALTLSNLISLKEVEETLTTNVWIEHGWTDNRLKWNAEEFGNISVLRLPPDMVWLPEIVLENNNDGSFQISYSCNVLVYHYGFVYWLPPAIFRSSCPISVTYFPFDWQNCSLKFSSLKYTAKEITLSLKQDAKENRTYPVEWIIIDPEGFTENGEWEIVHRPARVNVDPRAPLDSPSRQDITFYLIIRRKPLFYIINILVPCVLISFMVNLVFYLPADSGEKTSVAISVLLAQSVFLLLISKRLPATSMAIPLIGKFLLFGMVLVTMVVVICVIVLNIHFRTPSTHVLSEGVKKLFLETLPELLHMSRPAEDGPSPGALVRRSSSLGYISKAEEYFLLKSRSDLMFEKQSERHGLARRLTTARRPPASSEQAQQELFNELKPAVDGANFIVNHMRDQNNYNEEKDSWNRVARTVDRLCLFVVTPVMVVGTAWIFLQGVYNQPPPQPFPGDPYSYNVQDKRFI
Data processing: (1) Current values recorded for vehicle only applications in individual traps/patterns were subtracted from corresponding current amplitude values for control, test article and control+test article. (2) Control response was calculated as % of the average response of the 3rd out of total 3 ACh (10 mM) applications alone. In rare situations, if the 3rd ACh response was obscured due to technical artifacts, the 2nd and/or 1 st ACh (10 mM) application was considered as control. The peak current amplitude generated in the presence of each test article concentration was then used to calculate the % inhibition as compared to control response (10 mM ACh alone). These estimates were further corrected for vehicle response and run down corrected by normalizing with time matched control responses (10 mM ACh alone). The corrected percentages were then fit with a non-linear function in GraphPad Prism 6 (or later versions) to determine the […].
Exclusion criteria: (i) any n's with poor recording quality, (ii) control current amplitude <500 pA or (iii) significant outliers, as determined by the Grubbs' test.
ARMs compounds of Formula (I) of the invention were tested for antagonism of the nAChR in the above assay in […] experimental runs and the results are shown in Table 7 below. Antagonistic activity of the compounds of Formula (I) of the invention is reported as an IC50 value (half maximal inhibitory concentration) and the maximum percentage antagonism observed at the highest concentration of compound of Formula (I) tested, as indicated in Table 7. For compounds tested in more than one experimental run, the IC50 value is reported as an average.

The structures appear in SMILES notation. Several values for one entry are separate records, joined by “and”; a condition that tells them apart may be missing. Equal entries are not always repeated. Bounds are passed on as bounds.

Regarding `CC(C)N(C)[C@@H]1CC[C@H](N2CC[C@H](Nc3ncnc4ccc(C(F)(F)F)cc34)C2=O)[C@H](NC(=O)[C@H]2CC[C@@H](NC(=O)CCOCCNC(=O)COCCCNC(=O)[C@H]3CC(=O)N(C)[C@@H]3c3cccnc3)CC2)C1` [Example 175, (2S,3S)-N-(3-(2-((2-(3-(((1 S,4s)-4-(((1R,2S,5R)-5-(Isopropyl(methyl)amino)-2-((S)-2-oxo-3-((6-(trifluoromethyl)quinazolin-4-yl)amino)pyrrolidin-1-yl)cyclohexyl)carbamoyl)cyclohexyl)amino)-3-oxopropoxy)ethyl)amino)-2-oxoethoxy)propyl)-1-methyl-5-oxo-2-(pyridin-3-yl)pyrrolidine-3-carboxamide], in assay [1], the EC50 is 0.794 nM and 0.398 nM. In addition, the “pKd of Antibody for ARM Compound of Formula (I)” value (from here on “pKd of Antibody”) in assay [2] amounted to 9.244.
Take `CC(C)N(C)[C@@H]1CC[C@H](N2CC[C@H](Nc3ncnc4ccc(C(F)(F)F)cc34)C2=O)[C@H](NC(=O)COCCNC(=O)COCCOCCNC(=O)CCNC(=O)[C@H]2CC(=O)N(C)[C@@H]2c2cccnc2)C1` [Example 143, (2S,3S)-N-(1-(((1R,2S,5R)-5-(Isopropyl(methyl)amino)-2-((S)-2-oxo-3-((6-(trifluoromethyl)quinazolin-4-yl)amino)pyrrolidin-1-yl)cyclohexyl)amino)-1,7,16-trioxo-3,9,12-trioxa-6,15-diazaoctadecan-18-yl)-1-methyl-5-oxo-2-(pyridin-3-yl)pyrrolidine-3-carboxamide]: in assay [1], the EC50 was 3.24 nM. In addition, in assay [2], the “pKd of Antibody” value amounted to 9.275.
On to `CC(C)N(C)[C@@H]1CC[C@H](N2CC[C@H](Nc3ncnc4ccc(C(F)(F)F)cc34)C2=O)[C@H](NC(=O)CCOCCNC(=O)CCOCCNC(=O)CCOCCNC(=O)[C@H]2CC(=O)N(C)[C@@H]2c2cccnc2)C1` [Example 46], for which the EC50 in assay [1] is 0.501 nM. Moreover, the “pKd of Antibody” value in assay [2] worked out at 9.074.
Regarding `CC(C)N(C)[C@@H]1CC[C@H](N2CC[C@H](Nc3ncnc4ccc(C(F)(F)F)cc34)C2=O)[C@H](NC(=O)[C@H]2C[C@H](NC(=O)CCOC[C@H]3CC[C@H](COCCNC(=O)[C@H]4CC(=O)N(C)[C@@H]4c4cccnc4)CC3)C2)C1` [Example 54], the EC50 in assay [1] was 1 nM. Also, the “pKd of Antibody” value in assay [2] came to 9.5515.
Taken in the same sequence, the figures for `CC(C)N(C)[C@@H]1CC[C@H](N2CC[C@H](Nc3ncnc4ccc(C(F)(F)F)cc34)C2=O)[C@H](NC(=O)COCCNC(=O)CCOCCNC(=O)CCOCCNC(=O)[C@H]2CC(=O)N(C)[C@@H]2c2cccnc2)C1` [Example 47] were 2.84 nM and 9.051.
Consider `CC(C)N(C)[C@@H]1CC[C@H](N2CC[C@H](Nc3ncnc4ccc(C(F)(F)F)cc34)C2=O)[C@H](NC(=O)[C@H]2CC[C@@H](NC(=O)CCOCCCNC(=O)CCCNC(=O)[C@H]3CC(=O)N(C)[C@@H]3c3cccnc3)CC2)C1` [Example 17, (2S,3S)-N-(4-((3-(3-(((1S,4s)-4-(((1R,2S,5R)-5-(Isopropyl(methyl)amino)-2-((S)-2-oxo-3-((6-(trifluoromethyl)quinazolin-4-yl)amino)pyrrolidin-1-yl)cyclohexyl)carbamoyl)cyclohexyl)amino)-3-oxopropoxy)propyl)amino)-4-oxobutyl)-1-methyl-5-oxo-2-(pyridin-3-yl)pyrrolidine-3-carboxamide], for which the EC50 in assay [1] is 0.338 nM and 0.656 nM. In assay [3], the Emax at 100 µM was 55.1% and the 50% inhibitory concentration (IC50) was at least 100000 nM.
Turning to `CC(C)N(C)[C@@H]1CC[C@H](N2CC[C@H](Nc3ncnc4ccc(C(F)(F)F)cc34)C2=O)[C@H](NC(=O)[C@H]2CC[C@@H](NC(=O)CCCOC[C@H]3CC[C@@H](COCCNC(=O)[C@H]4CC(=O)N(C)[C@@H]4c4cccnc4)CC3)CC2)C1` [Example 61], the “pKd of Antibody” value in assay [2] is 9.558.
`CC(C)N(C)[C@@H]1CC[C@H](N2CC[C@H](Nc3ncnc4ccc(C(F)(F)F)cc34)C2=O)[C@H](NC(=O)[C@H]2C[C@@H](NC(=O)CCOCCNC(=O)CCOCCNC(=O)[C@H]3CC(=O)N(C)[C@@H]3c3cccnc3)C2)C1` [Example 44, (2S,3S)-N-(2-(3-((2-(3-(((1S,3s)-3-(((1R,2S,5R)-5-(Isopropyl(methyl)amino)-2-((S)-2-oxo-3-((6-(trifluoromethyl)quinazolin-4-yl)amino)pyrrolidin-1-yl)cyclohexyl)carbamoyl)cyclobutyl)amino)-3-oxopropoxy)ethyl)amino)-3-oxopropoxy)ethyl)-1-methyl-5-oxo-2-(pyridin-3-yl)pyrrolidine-3-carboxamide]: the EC50 in assay [1] was 0.897 nM. Further, in assay [3], the Emax at 100 µM was determined as 51.5% and the IC50 was at least 100000 nM.
Take `CC(C)N(C)[C@@H]1CC[C@H](N2CC[C@H](Nc3ncnc4ccc(C(F)(F)F)cc34)C2=O)[C@H](NC(=O)[C@H]2CC[C@H](NC(=O)CCCO[C@H]3CC[C@H](OCCNC(=O)[C@H]4CC(=O)N(C5CC5)[C@@H]4c4cccnc4)CC3)CC2)C1` [Example 13]: in assay [2], the “pKd of Antibody” value came to 10.511.
Consider `CC(C)N(C)[C@@H]1CC[C@H](N2CC[C@H](Nc3ncnc4ccc(C(F)(F)F)cc34)C2=O)[C@H](NC(=O)c2ccc(C3CCN(CCOCCOCCNC(=O)[C@H]4CC(=O)N(C)[C@@H]4c4cccnc4)CC3)cn2)C1` [Example 94], for which the EC50 in assay [1] is 10 nM. Also, in assay [3], the Emax at 10 µM came to 67.1% and the concentration for half-maximal inhibition (IC50) is 4660 nM.
Taken in the same sequence, the figures for `CC(C)N(C)[C@@H]1CC[C@H](N2CC[C@H](Nc3ncnc4ccc(C(F)(F)F)cc34)C2=O)[C@H](NC(=O)CCOCCN2CCC3(CCC(C(=O)NCCNC(=O)[C@H]4CC(=O)N(C)[C@@H]4c4cccnc4)CC3)CC2)C1` [compound 184] were 0.398 nM, 69.2% and 6390 nM.
Take `CC(C)N(C)[C@@H]1CC[C@H](N2CC[C@H](Nc3ncnc4ccc(C(F)(F)F)cc34)C2=O)[C@H](NC(=O)[C@H]2C[C@H](NC(=O)CCCO[C@H]3CC[C@H](OCCNC(=O)[C@H]4CC(=O)N(C)[C@@H]4c4cccnc4)CC3)C2)C1` [Example 8]: the EC50 in assay [1] was 0.631 nM. Also, in assay [3], the Emax at 100 µM was 73.1% and it took 47200 nM to reach half-maximal inhibition (IC50).
As for `CC(C)N(C)[C@@H]1CC[C@H](N2CC[C@H](Nc3ncnc4ccc(C(F)(F)F)cc34)C2=O)[C@H](NC(=O)[C@H]2CC[C@H](c3ccc(C(=O)NCCOCCOCCNC(=O)[C@H]4CC(=O)N(C)[C@@H]4c4cccnc4)cc3)CC2)C1` [Example 140], the EC50 in assay [1] is 3.16 nM. Further, in assay [3], the Emax at 10 µM stood at 18.2% and the 50% inhibitory concentration (IC50) was over 10000 nM.
